Test results: paper PMC7904743, “WIDOCK: a reactive docking protocol for virtual screening of covalent inhibitors” (Journal of Computer-Aided Molecular Design, 2021)
Entries after “also recorded” stand apart in the source; their conditions may differ.

How the values were obtained:
[1] = tested on: KRAS^G12C; design: method as in PMID 28621541; details: > 50% labeling at 100 μM considered active; cited from earlier work
[2] = target: T1, CatB (Homo sapiens, UniProt P07858); design: method as in PMID 30321804; details: cited from earlier work; for CatB RA (%): residual activity at 100 μM, single point
[3] = half-life of adduct formation with L-glutathione; cited from earlier work
[4] = target: T2, Recombinant human microsomal MAO-A (Homo sapiens, UniProt P21397); experiment: MAO-A activity assay (fluorimetric, Amplex Red, p-tyramine); assay type: biochemical; details: MAO-A residual activity; active if lower than 60%
T2 construct: purchased Sigma Aldrich; host or cells: baculovirus infected insect cells (BTI-TN-5B1-4)
T2 sequence (P21397 1-527): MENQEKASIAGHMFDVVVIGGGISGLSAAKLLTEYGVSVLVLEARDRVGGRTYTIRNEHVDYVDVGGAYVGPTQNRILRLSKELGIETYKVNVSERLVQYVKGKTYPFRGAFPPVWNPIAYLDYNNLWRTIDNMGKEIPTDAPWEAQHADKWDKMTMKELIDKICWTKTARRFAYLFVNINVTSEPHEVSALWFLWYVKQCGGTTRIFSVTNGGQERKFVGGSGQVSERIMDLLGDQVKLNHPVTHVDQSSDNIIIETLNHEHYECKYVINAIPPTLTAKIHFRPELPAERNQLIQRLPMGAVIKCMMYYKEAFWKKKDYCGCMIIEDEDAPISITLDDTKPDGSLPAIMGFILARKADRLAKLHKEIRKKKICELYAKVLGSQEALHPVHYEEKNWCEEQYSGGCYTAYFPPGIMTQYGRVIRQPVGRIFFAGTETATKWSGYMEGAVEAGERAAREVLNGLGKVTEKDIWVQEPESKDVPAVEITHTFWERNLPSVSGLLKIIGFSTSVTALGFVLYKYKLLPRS
Description: The effects of the test compounds on MAO-A were investigated using a fluorimetric assay, following a previously described methodology. The inhibitory activity of the compounds was evaluated by their effects on the production of hydrogen peroxide (H2O2) from p-tyramine. The production of H2O2 was detected using Amplex Red reagent in the presence of horseradish peroxidase, where a highly sensitive fluorescent product, resorufin, is produced at stoichiometric amounts. Recombinant human microsomal MAO-A enzyme expressed in baculovirus infected insect cells (BTI-TN-5B1-4), horse-radish peroxidase (type II, lyophilized powder), and p-tyramine hydrochloride were obtained from Sigma Aldrich. 10-Acetyl-3,7-dihydroxyphenoxazine (Amplex Red reagent) was synthesized as described in the literature.
Briefly, 100 µL 50 mM sodium phosphate buffer (pH 7.4, 0.05% Triton X-114) containing the compounds and MAO-A were incubated for 30 min at 37 °C in a flat-bottomed black 96-well microplate, and placed in a dark microplate reader chamber. After the pre-incubation, the reaction was started by adding the final concentrations of 200 µM Amplex Red reagent, 2 U/mL horseradish peroxidase, and 1 mM p-tyramine (final volume, 200 µL). The production of resorufin was quantified based on the fluorescence generated (λex = 530 nm, λem = 590 nm) at 37 °C over a period of 30 min, during which time the fluorescence increased linearly. For control experiments, DMSO was used instead of the appropriate dilutions of the compounds in DMSO. To determine the blank value (b), phosphate-buffered solution replaced the enzyme solution. The initial velocities were calculated from the trends obtained, with each measurement carried out in duplicate. The specific fluorescence emission to obtain the final result was calculated after subtraction of the blank activity (b).

[5] = Kinetic measurement of adduct formation with L-glutathione (GSH) by HPLC–MS; assay type: physicochemical; design: unit not given here
Description: Electrophilic fragments tested against MurA, CatB and MAO-A (25–53, structures shown in Supporting Figure S2 and SMILES provided in Supporting Table S1) represent eight different warhead chemotypes reacting via two reaction mechanisms: Michael-type nucleophilic addition and nucleophilic substitution. The intrinsic thiol reactivities (see Table 1) were determined by kinetic measurement of adduct formation with L-glutathione (GSH), a widely used cysteine surrogate, by an HPLC–MS methodology, as described in the referred study.

[6] = target: T3, MurA (Escherichia coli, UniProt P0A749); details: cited from earlier work; for MurA RA (%): residual activity at 100 μM, single point; for experimental activity class against MurA: < 60% residual activity at 100 μM considered active
[7] = target: T3, MurA; details: MurA residual activity; active if lower than 60%
Description: (§1) These fragments were measured in single point enzyme activity assays at 100 μM concentration against MurA and CatB.

[8] = target: T1, CatB; experiment: CatB single point enzyme activity assay (residual activity); details: for remaining activity at 100 µM: read-out: RA
Description: as §1

[9] = target: T4, human MAO-A (Homo sapiens, UniProt P21397); experiment: Labelling of human MAO-A, tryptic digestion and LC–MS/MS; assay type: binding; details: 24 h at 4 °C, tryptic digestion
T4 sequence (P21397 1-527): T2 sequence (P21397 1-527)

[10] = target: T3, MurA; experiment: biochemical; details: read-out: RA
Description: as §1

T3 sequence (P0A749 whole entry): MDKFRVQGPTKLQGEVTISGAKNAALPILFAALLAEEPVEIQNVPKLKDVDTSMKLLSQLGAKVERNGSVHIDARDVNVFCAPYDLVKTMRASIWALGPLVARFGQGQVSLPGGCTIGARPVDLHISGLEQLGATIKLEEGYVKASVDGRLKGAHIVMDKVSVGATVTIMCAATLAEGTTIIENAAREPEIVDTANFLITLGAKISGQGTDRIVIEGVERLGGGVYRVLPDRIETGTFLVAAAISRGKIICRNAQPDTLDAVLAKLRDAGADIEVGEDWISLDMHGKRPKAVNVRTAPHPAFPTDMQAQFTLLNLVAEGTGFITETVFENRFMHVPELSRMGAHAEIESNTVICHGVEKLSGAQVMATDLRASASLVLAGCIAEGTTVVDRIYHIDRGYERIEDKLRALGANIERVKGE

| Compound | experimental activity class against KRAS^G12C [1] | CatB RA (%) [2] [%] | GSH half-life [3] [h] | RA [4] [%] | Reactivity, Experimental ln(k) vs GSH [5] | MurA RA (%) [6] [%] | RA [7] [%] | RA ([8]; CatB residual activity, active if lower than 60%) [%] | covalent labelling of MAO-A (MS/MS) [9] | experimental activity class against MurA [6] | experimental activity class against CatB ([2]; < 60% residual activity at 100 μM considered active) | remaining activity at 100 µM [10] [%] | remaining activity at 100 µM [8] [%] |
| --- | --- | --- | --- | --- | --- | --- | --- | --- | --- | --- | --- | --- | --- |
| Cc1ccc2[nH]ncc2c1-c1c(Cl)cc2c(N3CCN(C(=O)n4ccnc4)CC3)ncnc2c1F [Compound 14, c1n[nH]c(c12)ccc(C)c2-c(c(Cl)c3)c(F)c(c34)ncnc4N5CCN(CC5)C(=O)n6ccnc6] | experimental actives |  |  |  |  |  |  |  |  |  |  |  |  |
| Cc1ccc2[nH]ncc2c1-c1c(Cl)cc2c(N3CCC(NC(=O)CCl)CC3)ncnc2c1F [Compound 17, c1n[nH]c(c12)ccc(C)c2-c(c(Cl)c3)c(F)c(c34)ncnc4N5CCC(CC5)NC(=O)CCl] | experimental actives |  |  |  |  |  |  |  |  |  |  |  |  |
| C/C=C/C#N [Compound 28, C/C=C/C#N] |  | 87 | 41.2 | 81 | -4.085 | 101 | 101 | 87 |  |  |  |  |  |
| C=CC(=O)Nc1cc(C(F)(F)F)cc(C(F)(F)F)c1 [Compound 32, C=CC(=O)Nc1cc(C(F)(F)F)cc(C(F)(F)F)c1] |  |  |  |  |  |  |  |  | double modified; also recorded: forms a covalent bond with Cys323 | experimental MurA actives |  |  |  |
| COc1ccccc1C(=O)CBr [Compound 46, COc1ccccc1C(=O)CBr] |  | 55 | < 0.1 | 39 | 1.936 | 3 |  |  |  | experimental MurA actives | experimental actives | 3 | 55 |
| Cc1ccccc1NC(=O)CCl [Compound 47, Cc1ccccc1NC(=O)CCl] |  | 86 | 326 | 78 | -6.153 | 83 |  |  |  |  |  | 83 | 86 |
| CC(Br)C(=O)Nc1cc(C(F)(F)F)cc(C(F)(F)F)c1 (centres unmarked) [Compound 50, CC(Br)C(=O)Nc1cc(C(F)(F)F)cc(C(F)(F)F)c1] |  | 91 | 95.2 | 83 | -4.922 | 35 |  |  |  |  |  | 35 | 91 |
| COc1cc(NC(=O)CCl)cc(OC)c1 [Compound 51, COc1cc(NC(=O)CCl)cc(OC)c1] |  | 87 | 22.9 | 69 | -3.498 | 61 |  |  |  |  |  | 61 | 87 |
